Experiments:
Calu-3 [1] = experiment: relative viability EC50 (midpoint between 100% and the lowest measured viability); higher = less toxic; conditions: 72 h
U2OS [2] = experiment: as above; conditions: 72 h
Caco-2 [3] = experiment: as above; conditions: 72 h
Vero E6 [4] = experiment: as above; conditions: 72 h
HepG2 [5] = experiment: as above; conditions: 72 h
A549-ACE2 [6] = experiment: drug-induced phospholipidosis relative to tamoxifen; higher = more phospholipidosis
Calu-3 [7] = experiment: cell viability relative to DMSO; higher = less toxic; conditions: 72 h
U2OS [8] = experiment: as above; conditions: 72 h
Caco-2 [9] = experiment: as above; conditions: 72 h
Vero E6 [10] = experiment: as above; conditions: 72 h
HepG2 [11] = experiment: as above; conditions: 72 h
[12] = system: A549-ACE2 infected with SARS-CoV-2; experiment: SARS-CoV-2 infection rate relative to DMSO; higher = more infection; conditions: 24 h
[13] = system: A549-ACE2 infected with SARS-CoV-2; experiment: morphology score (similarity to uninfected cells); higher = more like uninfected cells; conditions: 24 h
Calu-3 [14] = experiment: drug sensitivity score (DSS) for viability; higher = more toxic; extreme values may be limits of the assay; conditions: 72 h
U2OS [15] = experiment: as above; conditions: 72 h
Caco-2 [16] = experiment: as above; conditions: 72 h
Vero E6 [17] = experiment: as above; conditions: 72 h
HepG2 [18] = experiment: as above; conditions: 72 h
[19] = system: A549-ACE2 infected with SARS-CoV-2; experiment: cell count relative to DMSO; higher = less toxic; conditions: 24 h
A549-ACE2 [20] = experiment: phospholipidosis EC50; higher = less potent phospholipidosis inducer

CC(=O)OC[C@H]1O[C@@H]([S-])[C@H](OC(C)=O)[C@@H](OC(C)=O)[C@@H]1OC(C)=O.CCP(CC)CC.[Au+] [auranofin]
Conditions | drug sensitivity score | relative viability EC50
Caco-2 [3] | – | 1150 nM
Caco-2 [16] | 11 | –
Calu-3 [1] | – | 3.86 µM
Calu-3 [14] | 4.5 | –
HepG2 [5] | – | 1.46 µM
HepG2 [18] | 9.7 | –
U2OS [2] | – | 382 nM
U2OS [15] | 16.9 | –
Vero E6 [4] | – | 2190 nM
Vero E6 [17] | 7.5 | –

drug-induced phospholipidosis [%], A549-ACE2 [6]
Conditions | 0.3 µM | 0.833333 µM | 3.33333 µM | 6.66667 µM
24 h | 0.97 | -3.21 | 5.44 | 2.76
48 h | 3.04 | -1.45 | 6.04 | –
72 h | 2.56 | 0.634 | – | –

Conditions | SARS-CoV-2 infection rate, [12] [%] | cell count, [19] [%] | cell viability, Caco-2 [9] [%] | cell viability, Calu-3 [7] [%] | cell viability, HepG2 [11] [%] | cell viability, U2OS [8] [%] | cell viability, Vero E6 [10] [%] | morphology score, [13]
1 nM | – | – | 99.9 | 100 | 90.6 | 101 | 92.1 | –
10 nM | – | – | 94.2 | 92.8 | 99.4 | 98.2 | 94.2 | –
100 nM | – | – | 101 | 106 | 102 | 98.5 | 93.6 | –
0.1 µM | 96 | 98 | – | – | – | – | – | 0.03
0.3 µM | 91 | 103 | – | – | – | – | – | 0.11
1000 nM | – | – | 58.6 | 117 | 72.1 | 7.5 | 88.1 | –
1 µM | 86 | 98 | – | – | – | – | – | 0.34
3 µM | 64 | 90 | – | – | – | – | – | 0.39
10000 nM | – | – | 0 | 1.2 | -0.1 | 0 | 0 | –

O=C(CCCN1CCC2(CC1)C(=O)N(Cc1cccc(F)c1)CN2c1ccccc1)c1ccc(F)cc1 [3'-fluorobenzylspiperone]
Conditions | drug sensitivity score | relative viability EC50
Caco-2 [3] | – | 3280 nM
Caco-2 [16] | 3.9 | –
Calu-3 [1] | – | 3.25 µM
Calu-3 [14] | 3.8 | –
HepG2 [5] | – | 3.46 µM
HepG2 [18] | 2.7 | –
U2OS [2] | – | 3150 nM
U2OS [15] | 4.1 | –
Vero E6 [17] | 2.6 | –

drug-induced phospholipidosis [%], A549-ACE2 [6]
Conditions | 0.3 µM | 0.833333 µM | 3.33333 µM | 6.66667 µM | 10 µM | 30 µM
24 h | 3.51 | -1.7 | 29 | 48.2 | -29.1 | -34.9
48 h | 4.33 | 1.23 | 42.2 | 60 | – | –
72 h | 4.04 | 1.05 | 39.3 | 48.1 | – | –

Conditions | SARS-CoV-2 infection rate [%] | cell count [%] | cell viability [%] | morphology score | phospholipidosis EC50 [nM]
A549-ACE2 [20], 48 h | – | – | – | – | 2950
Caco-2 [9], 1 nM | – | – | 90.9 | – | –
Caco-2 [9], 10 nM | – | – | 91.1 | – | –
Caco-2 [9], 100 nM | – | – | 100 | – | –
Caco-2 [9], 1000 nM | – | – | 101 | – | –
Caco-2 [9], 10000 nM | – | – | 27.9 | – | –
Calu-3 [7], 1 nM | – | – | 101 | – | –
Calu-3 [7], 10 nM | – | – | 106 | – | –
Calu-3 [7], 100 nM | – | – | 90.6 | – | –
Calu-3 [7], 1000 nM | – | – | 101 | – | –
Calu-3 [7], 10000 nM | – | – | 29.7 | – | –
HepG2 [11], 1 nM | – | – | 94.6 | – | –
HepG2 [11], 10 nM | – | – | 98.1 | – | –
HepG2 [11], 100 nM | – | – | 95.9 | – | –
HepG2 [11], 1000 nM | – | – | 103 | – | –
HepG2 [11], 10000 nM | – | – | 44.4 | – | –
U2OS [8], 1 nM | – | – | 96.5 | – | –
U2OS [8], 10 nM | – | – | 102 | – | –
U2OS [8], 100 nM | – | – | 98.7 | – | –
U2OS [8], 1000 nM | – | – | 99.8 | – | –
U2OS [8], 10000 nM | – | – | 26.4 | – | –
Vero E6 [10], 1 nM | – | – | 103 | – | –
Vero E6 [10], 10 nM | – | – | 97.2 | – | –
Vero E6 [10], 100 nM | – | – | 93 | – | –
Vero E6 [10], 1000 nM | – | – | 95.1 | – | –
Vero E6 [10], 10000 nM | – | – | 62.9 | – | –
[12], 0.1 µM | 99 | – | – | – | –
[12], 0.3 µM | 90 | – | – | – | –
[12], 1 µM | 87 | – | – | – | –
[12], 3 µM | 17 | – | – | – | –
[13], 0.1 µM | – | – | – | -0.13 | –
[13], 0.3 µM | – | – | – | 0.27 | –
[13], 1 µM | – | – | – | 0.46 | –
[13], 3 µM | – | – | – | 0.54 | –
[19], 0.1 µM | – | 97 | – | – | –
[19], 0.3 µM | – | 102 | – | – | –
[19], 1 µM | – | 109 | – | – | –
[19], 3 µM | – | 107 | – | – | –

COC(=O)C1=C(C)NC(C)=C(C(=O)NCCCN2CCC(c3ccccc3)(c3ccccc3)CC2)C1c1ccc([N+](=O)[O-])cc1 (stereo not given) [SNAP-5089]
Conditions | drug sensitivity score | relative viability EC50 [µM]
Caco-2 [16] | 1.4 | –
Calu-3 [1] | – | 3.57
Calu-3 [14] | 4.4 | –
HepG2 [5] | – | 3.02
HepG2 [18] | 3.7 | –
U2OS [15] | 1.6 | –
Vero E6 [17] | 1.9 | –

drug-induced phospholipidosis [%], A549-ACE2 [6]
Conditions | 0.3 µM | 0.833333 µM | 3.33333 µM | 6.66667 µM | 10 µM | 30 µM
24 h | 5.01 | 19.9 | 66.9 | 74.6 | 62.5 | 47.6
48 h | 7.57 | 17.4 | 77.4 | 93.7 | 96.6 | –
72 h | 6.91 | 11.4 | 64.3 | 94.9 | 116 | –

Conditions | SARS-CoV-2 infection rate [%] | cell count [%] | cell viability [%] | morphology score | phospholipidosis EC50 [nM]
A549-ACE2 [20], 24 h | – | – | – | – | 945
A549-ACE2 [20], 48 h | – | – | – | – | 1980
A549-ACE2 [20], 72 h | – | – | – | – | 4510
Caco-2 [9], 1 nM | – | – | 95.4 | – | –
Caco-2 [9], 10 nM | – | – | 94.8 | – | –
Caco-2 [9], 100 nM | – | – | 92.9 | – | –
Caco-2 [9], 1000 nM | – | – | 106 | – | –
Caco-2 [9], 10000 nM | – | – | 63 | – | –
Calu-3 [7], 1 nM | – | – | 88.4 | – | –
Calu-3 [7], 10 nM | – | – | 101 | – | –
Calu-3 [7], 100 nM | – | – | 92.3 | – | –
Calu-3 [7], 1000 nM | – | – | 107 | – | –
Calu-3 [7], 10000 nM | – | – | 12.1 | – | –
HepG2 [11], 1 nM | – | – | 114 | – | –
HepG2 [11], 10 nM | – | – | 108 | – | –
HepG2 [11], 100 nM | – | – | 102 | – | –
HepG2 [11], 1000 nM | – | – | 98.6 | – | –
HepG2 [11], 10000 nM | – | – | 35.5 | – | –
U2OS [8], 1 nM | – | – | 94.4 | – | –
U2OS [8], 10 nM | – | – | 98.7 | – | –
U2OS [8], 100 nM | – | – | 98.5 | – | –
U2OS [8], 1000 nM | – | – | 102 | – | –
U2OS [8], 10000 nM | – | – | 63.8 | – | –
Vero E6 [10], 1 nM | – | – | 94.8 | – | –
Vero E6 [10], 10 nM | – | – | 98.5 | – | –
Vero E6 [10], 100 nM | – | – | 97.4 | – | –
Vero E6 [10], 1000 nM | – | – | 91.8 | – | –
Vero E6 [10], 10000 nM | – | – | 74.3 | – | –
[12], 0.1 µM | 92 | – | – | – | –
[12], 0.3 µM | 107 | – | – | – | –
[12], 1 µM | 84 | – | – | – | –
[12], 3 µM | 23 | – | – | – | –
[13], 0.1 µM | – | – | – | 0.15 | –
[13], 0.3 µM | – | – | – | -0.06 | –
[13], 1 µM | – | – | – | 0.43 | –
[13], 3 µM | – | – | – | 0.87 | –
[19], 0.1 µM | – | 104 | – | – | –
[19], 0.3 µM | – | 100 | – | – | –
[19], 1 µM | – | 110 | – | – | –
[19], 3 µM | – | 123 | – | – | –

Source: the supplement of paper PMC13380429
